# Earlier results, collected in patent US20210329918A1, “AQUEOUS COMPOSITIONS OF TOPRAMEZONE” (BASF SE, priority 2018, published 2021).
# Details: 25° C.
smiles,measurement,value
"Cc1c(C(=O)c2cnn(C)c2O)ccc(S(C)(=O)=O)c1C1=NOCC1 [topramezone, 4-[3-(4,5-dihydro-1,2-oxazol-3-yl)-2-methyl-4-methylsulfonylbenzoyl]-2-methyl-1H-pyrazol-3-one]",solubility of topramezone in water,about 0.305 g/L
